Results published in patent US9962350B2, “Agent for improving normal development rate of fertilized eggs” (SBI Pharmaceuticals Co., Ltd., priority 2014, dated 2018).

Experiments:
[1] = tested on: fertilized eggs obtained by the mating between female mice of the BDF2 lineage and male mice of the BDF1 lineage; test: In vitro culture of natural mating-derived fertilized eggs (BDF2 females x BDF1 males) with ALA; embryo development; format: cell-based, mouse; conditions: 1 μM ALA
Method: Aside therefrom, a drop of 100 μL of M16 medium covered with mineral oil (manufactured by Sigma-Aldrich Corp.) and supplemented with ALA hydrochloride (manufactured by SBI Pharmaceuticals Co., Ltd.) at a final concentration of 0 μM (control), 0.1 μM, 0.5 μM, or 1 μM was prepared in a 35 mm Petri dish and left standing at 37° C. in a CO2 incubator. 29 or 30 of the cumulus cell-free fertilized eggs were transferred to the resulting drop and cultured in vitro at 37° C. in a CO2 incubator.
After a lapse of 24 hours, 48 hours, 72 hours, and 96 hours from the start of the in vitro culture (0 hours) in the drop, the developmental stage of each embryo was determined by observation under a stereoscopic microscope, and the number of embryos whose development progressed normally and change in development rate were calculated. Specifically, the number of 2-cell eggs 24 hours after the start of the culture, the number of 3-cell, 4-cell, and 8-cell eggs 48 hours thereafter, the number of morulae and blastocysts 72 hours thereafter, and the number of blastocysts 96 hours thereafter were counted as embryos whose development progressed normally at each stage. The development rate with the number of fertilized eggs (0 hours) defined as 100% is shown in Table 3 and the graph of FIG. 1. For the evaluation of the development rate, the percentage of the number of embryos whose development progressed normally 24 hours, 48 hours, 72 hours, and 96 hours after the start of the culture was calculated with the number of fertilized eggs (0 hours) defined as 100%, and used as a normal development rate. Because of the natural mating, the number of recovered fertilized eggs (0 hours) includes unfertilized eggs to some extent, and there is the possibility that the content of unfertilized eggs varies accidentally among fertilized eggs (0 hours) populations distributed to the respective condition groups even if the fertilized eggs (0 hours) populations have been recovered in the same experiment. The development rate calculated with the number of 2-cell embryos 24 hours postfertilization defined as 100% was calculated in order to eliminate the influence of the content of unfertilized eggs that varies accidentally among the respective condition groups. In short, in order to calculate the development rate on the basis of the number of eggs that reliably started embryo development, the development rate with the number of 2-cell embryos 24 hours postfertilization defined as 100% is shown in Table 4 and the graph of FIG. 2. The results of each test group were statistically analyzed by the square test (chi-square test) with a statistically significant difference of p<0.01 (**) and p<0.05 (*).
The study was conducted in the same way as in Example 1 except that: the female mice used to harvest fertilized eggs were female mice of the BDF2 lineage (5 to 24 weeks old, body weight: 16 to 25 g) obtained by the mating between females and males of the BDF1 lineage (F1 of C57BL/6 females×DBA/2 males); the male mice used for mating were male mice of the BDF1 lineage (F1 of C57BL/6 females×DBA/2 males) (46 to 52 weeks old, body weight: 30 to 45 g); and 1 μM ALA was studied. The results are shown in Tables 5 to 7 below and FIGS. 3 and 4.

[2] = tested on: C57BL/6J fertilized eggs (natural mating); test: Low-temperature in vitro culture of natural mating-derived fertilized eggs in KSOM or mWM with ALA; embryo development; format: cell-based, mouse; conditions: 35° C.
Method: According to a routine method of controlled ovarian hyperstimulation, 5 U (units) of equine chorionic gonadotropin (serum gonadotropin) (ASKA Pharmaceutical Co., Ltd.) were intraperitoneally administered to each female mouse of the C57BL/6J lineage (4 weeks old to 6 weeks old). 45 to 48 hours later, 5 U (units) of gonadotropin (human chorionic gonadotropin) (ASKA Pharmaceutical Co., Ltd.) were intraperitoneally administered thereto. Immediately after the administration of gonadotropin, each female mouse was mated with each male mouse of the C57BL/6J lineage. In the next morning, the oviducts were recovered into physiological saline (0.9% (w/v) NaCl) from the female mice that were able to be confirmed to have a vaginal plug. The oviducts were perfused with KSOM or mWM (both were purchased from ARK Resource Co., Ltd., http://www.ark-resource.co.jp/seihin/cryopreservation-liquid/) containing hyaluronidase (approximately 300 μg/ml, Sigma-Aldrich Corp.). After removal of cumulus cells from the obtained fertilized eggs, the fertilized eggs were recovered. In order to remove hyaluronidase, the fertilized eggs were washed with each medium (KSOM or mWM) and maintained in KSOM or mWM (ARK Resource Co., Ltd.) in an incubator of 37° C. and 5% CO2 until the fertilized eggs were recovered from all of the female mice. These two media used are typical media for use in mouse embryo culture. KSOM is a typical low glucose-containing medium, whereas mWM is a high glucose-containing medium.
20 to 50 of the recovered fertilized eggs were transferred into a drop (covered with mineral oil (Sigma-Aldrich Corp.)) consisting of 100 μl of ALA-unsupplemented or ALA-supplemented (1 μM or 3 μM) medium (KSOM or mWM). Subsequently, the fertilized eggs were cultured under two culture conditions: a condition of 37° C. and 5% CO2 and a condition of 35° C. and 5% CO2. The number of 2-cell eggs was counted 24 hours after the fertilized egg harvest, and the number of blastocysts was counted 96 hours thereafter. The development rate was evaluated in the same way as in Example 1. The results about KSOM are shown in Tables 8 to 10 and FIGS. 5 and 6. The results about mWM are shown in Tables 11 to 13 and FIGS. 7 and 8.

[3] = 1 μM ALA, mWM, 96 hr (blastocysts)
[4] = 3 μM ALA, mWM, 96 hr (blastocysts)

Compound: NCC(=O)CCC(=O)O [ALA, 5-aminolevulinic acid]
- The number of developed embryos ([1]; 24 hr): 41
- development rate with the number of fertilized eggs (0 hr) defined as 100% ([1]; 24 hr): 82%
- The number of developed embryos ([1]; 48 hr): 41
- development rate with the number of 2-cell embryos 24 hours postfertilization defined as 100% ([1]; 48 hr): 100%
- development rate with the number of fertilized eggs (0 hr) defined as 100% ([1]; 48 hr): 82%
- The number of developed embryos ([1]; 72 hr): 40
- development rate with the number of fertilized eggs (0 hr) defined as 100% ([1]; 72 hr): 80%
- The number of developed embryos ([1]; 96 hr): 40
- development rate with the number of fertilized eggs (0 hr) defined as 100% ([1]; 96 hr): 80%
- development rate as compared with the ALA-unsupplemented control (in words) ([1]; number of fertilized eggs (0 hours) defined as 100%): elevate the development rate
- The number of developed embryos in KSOM ([2]; 1 μM ALA, 24 hr): 39
- development rate with the number of fertilized eggs (0 hr) in KSOM defined as 100% ([2]; 1 μM ALA, 24 hr): 67%
- The number of developed embryos in KSOM ([2]; 1 μM ALA, 48 hr): 23
- development rate with the number of 2-cell embryos 24 hours postfertilization in KSOM defined as 100% ([2]; 1 μM ALA, 48 hr): 59%
- development rate with the number of fertilized eggs (0 hr) in KSOM defined as 100% ([2]; 1 μM ALA, 48 hr): 40%
- The number of developed embryos in KSOM ([2]; 1 μM ALA, 96 hr): 6
- development rate with the number of 2-cell embryos 24 hours postfertilization in KSOM defined as 100% ([2]; 1 μM ALA, 96 hr (blastocysts)): 15%
- development rate with the number of fertilized eggs (0 hr) in KSOM defined as 100% ([2]; 1 μM ALA, 96 hr (blastocysts)): 10%
- The number of developed embryos in mWM ([2]; 1 μM ALA, mWM, 24 hr): 59
- development rate with the number of fertilized eggs (0 hr) in mWM defined as 100% ([2]; 1 μM ALA, mWM, 24 hr): 50%
- The number of developed embryos in mWM ([2]; 1 μM ALA, mWM, 48 hr): 48
- development rate with the number of 2-cell embryos 24 hours postfertilization in mWM defined as 100% ([2]; 1 μM ALA, mWM, 48 hr): 81%
- development rate with the number of fertilized eggs (0 hr) in mWM defined as 100% ([2]; 1 μM ALA, mWM, 48 hr): 39%
- elevation of development rate to blastocysts vs control (in words) ([2]; 1 μM ALA, mWM, 96 hours (Tables 12 and 13)): no significant elevation
- The number of developed embryos in mWM ([2]; 1 μM ALA, mWM, 96 hr): 27
- development rate with the number of 2-cell embryos 24 hours postfertilization in mWM defined as 100% [2, 3]: 46%
- development rate with the number of fertilized eggs (0 hr) in mWM defined as 100% [2, 3]: 22%
- The number of developed embryos in mWM ([2]; 3 μM ALA, mWM, 24 hr): 62
- development rate with the number of fertilized eggs (0 hr) in mWM defined as 100% ([2]; 3 μM ALA, mWM, 24 hr): 50%
- The number of developed embryos in mWM ([2]; 3 μM ALA, mWM, 48 hr): 62
- development rate with the number of 2-cell embryos 24 hours postfertilization in mWM defined as 100% ([2]; 3 μM ALA, mWM, 48 hr): 100%
- development rate with the number of fertilized eggs (0 hr) in mWM defined as 100% ([2]; 3 μM ALA, mWM, 48 hr): 50%
- The number of developed embryos in mWM ([2]; 3 μM ALA, mWM, 96 hr): 40
- development rate with the number of 2-cell embryos 24 hours postfertilization in mWM defined as 100% [2, 4]: 65%
- development rate with the number of fertilized eggs (0 hr) in mWM defined as 100% [2, 4]: 32%
